From patent publication US5302582A, “Enkastins: new glycopeptides which act to inhibit enkephlinase, processes for their preparation, and their use as pharmaceutical products” (Hoechst Aktiengesellschaft, priority 1987, dated 1994)
pIC50: −log10 of the molar value.

Target: T1, enkephalinase preparation solubilized from rat kidneys (Rattus norvegicus, UniProt P07861)
T1 construct: enkephalinase preparation solubilized from rat kidneys; from tissue; host or cells: rat kidney
T1 sequence (P07861 1-750): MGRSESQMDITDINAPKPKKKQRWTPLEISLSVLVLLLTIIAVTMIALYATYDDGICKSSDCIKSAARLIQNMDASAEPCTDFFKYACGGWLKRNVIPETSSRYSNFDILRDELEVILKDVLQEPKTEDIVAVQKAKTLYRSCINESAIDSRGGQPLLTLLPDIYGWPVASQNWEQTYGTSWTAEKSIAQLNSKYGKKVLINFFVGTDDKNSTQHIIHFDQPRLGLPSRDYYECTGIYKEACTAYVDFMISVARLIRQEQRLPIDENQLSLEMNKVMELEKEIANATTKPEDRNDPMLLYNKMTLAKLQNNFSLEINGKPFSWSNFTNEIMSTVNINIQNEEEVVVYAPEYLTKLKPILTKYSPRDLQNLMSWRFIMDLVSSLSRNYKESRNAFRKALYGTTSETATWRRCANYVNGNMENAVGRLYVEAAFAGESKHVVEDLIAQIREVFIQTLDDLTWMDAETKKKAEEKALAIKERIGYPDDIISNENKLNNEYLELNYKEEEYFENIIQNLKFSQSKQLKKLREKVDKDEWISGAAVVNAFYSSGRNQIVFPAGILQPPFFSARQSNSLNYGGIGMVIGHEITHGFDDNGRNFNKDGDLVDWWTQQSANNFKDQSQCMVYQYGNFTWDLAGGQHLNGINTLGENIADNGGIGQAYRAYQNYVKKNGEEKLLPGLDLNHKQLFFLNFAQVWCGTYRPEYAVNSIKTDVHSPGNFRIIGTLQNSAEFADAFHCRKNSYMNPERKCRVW
Assay: Enkephalinase assay (enkephalinase inhibition)
Format: biochemical
Settings: for pIC50: inhibitor preincubated with the enzyme at room temperature for 60 minutes before addition of the substrate, read-out: IC50 (50% inhibition of enkephalinase); for enkephalinase-inhibitory activity of HPLC peaks: freeze-dried RP-18 HPLC fractions of crude enkastin complex from Streptomyces albus ATCC 21838
Protocol: The enzyme used was an enkephalinase preparation solubilized from rat kidneys by methods known per se [Mumford, R. A. et al. 1982, Biochem. Biophys. Res. Comm. 109, 1303-1309]. The 50% inhibition of enkephalinase by the compounds according to the invention, i.e. the IC50 value, was determined in a known manner using a concentration series, and the inhibitors, to which the invention relates, having been preincubated with the enzyme at room temperature for 60 minutes before the enzymatic reaction was started by addition of the substrate. Suitable checks for the non-inhibited reaction were carried out in the absence of an inhibitor.

| Compound | pIC50 | enkephalinase-inhibitory activity of HPLC peaks |
| --- | --- | --- |
| CC(C)[C@@H](NCC(=O)[C@@H](O)[C@H](O)[C@H](O)CO)C(=O)N[C@@H](CC(=O)O)C(=O)O [compound 1, N-(1-deoxyfructos-1-yl)-D-Val-Asp] | 8.89 |  |
| CC[C@@H](C)[C@@H](NCC(=O)[C@@H](O)[C@H](O)[C@H](O)CO)C(=O)N[C@@H](CC(=O)O)C(=O)O [compound 2, N-(1-deoxyfructos-1-yl)-D-Ile-Asp] | 8.74 |  |
| CC(C)[C@H](NCC(=O)[C@@H](O)[C@H](O)[C@H](O)CO)C(=O)N[C@@H](CC(=O)O)C(=O)O [compound 4, N-(1-deoxyfructos-1-yl)-Val-Asp] | 8.20 | enkephalinase-inhibitory activity |
| O=C(O)CC[C@H](NC(=O)[C@H](Cc1ccccc1)NCC(=O)[C@@H](O)[C@H](O)[C@H](O)CO)C(=O)O [compound 5, N-(1-deoxyfructos-1-yl)-Phe-Glu] | 7.25 |  |
| CC(C)[C@H](NCC(=O)[C@@H](O)[C@H](O)[C@H](O)CO)C(=O)N[C@@H](CCC(=O)O)C(=O)O [compound 6, N-(1-deoxyfructos-1-yl)-Val-Glu] | 7.47 | enkephalinase-inhibitory activity |
| CC[C@H](C)[C@H](NCC(=O)[C@@H](O)[C@H](O)[C@H](O)CO)C(=O)N[C@@H](CC(=O)O)C(=O)O [compound 7, N-(1-deoxyfructos-1-yl)-Ile-Asp] | 7.47 |  |
| CC[C@H](C)[C@H](NCC(=O)[C@@H](O)[C@H](O)[C@H](O)CO)C(=O)N[C@@H](CCC(=O)O)C(=O)O [compound 8, N-(1-deoxyfructos-1-yl)-Ile-Glu] | 7.25 | enkephalinase-inhibitory activity |
| CC[C@H](C)[C@H](NCC(=O)[C@@H](O)[C@H](O)[C@H](O)CO)C(=O)N[C@@H](CC(=O)OC(C)(C)C)C(=O)O [compound 9, N-(1-deoxyfructos-1-yl)-Ile-Asp(OtBu)] | 7.15 |  |
| N-(1-deoxyfructos-1-yl)-Hhp-Asp [compound 10] | 7.12 |  |
| N-(1-deoxyfructos-1-yl)-Ile-Asp [compound 3] | 8.74 | enkephalinase-inhibitory activity |

Second part, the compound after the results:

| pIC50 | enkephalinase-inhibitory activity of HPLC peaks | Compound |
| --- | --- | --- |
| 6.68 |  | CC[C@H](C)[C@H](NCC(=O)[C@@H](O)[C@H](O)[C@H](O)CO)C(=O)N[C@@H](CO)C(=O)O [compound 11, N-(1-deoxyfructos-1-yl)-Ile-Ser] |
| 6.64 |  | CC(C)[C@@H](NCC(=O)[C@@H](O)[C@H](O)[C@H](O)CO)C(=O)O [compound 12, N-(1-deoxyfructos-1-yl)-D-Val] |
| 6.49 |  | CC(C)[C@H](NCC(=O)[C@@H](O)[C@@H](O)[C@H](O)CO)C(=O)N[C@@H](CC(=O)O)C(=O)O [compound 13, N-(1-deoxytagatos-1-yl)-Val-Asp] |
| 6.47 |  | CC[C@@H](C)[C@@H](NCC(=O)[C@@H](O)[C@H](O)[C@H](O)CO)C(=O)O [compound 14, N-(1-deoxyfructos-1-yl)-D-Ile] |
